Experimental data: US10479784B2, “Substituted pyrazin-2-amines as inhibitors of ATR kinase” (Vertex Pharmaceuticals Incorporated, priority 2008, dated 2019)
pKi: −log10 of the molar value.

target: full-length ATR (Homo sapiens (Human), UniProt Q13535); assay: ATR Inhibition Assay (radioactive-phosphate incorporation); type: biochemical; details: read-out: ATR Ki
In short: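 Ki(app) was derived by non-linear regression of background-corrected initial rates of 33P incorporation into an 800 μM target peptide, read by phosphocellulose filter scintillation counting. Reaction conditions: 5 nM full-length ATR, 10 μM [γ-33P]ATP, pH 7.5 Tris buffer with MgCl2 and DTT, 25 °C, 10-min preincubation, 24 h run.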

full-length ATR, sequence (Q13535 whole entry): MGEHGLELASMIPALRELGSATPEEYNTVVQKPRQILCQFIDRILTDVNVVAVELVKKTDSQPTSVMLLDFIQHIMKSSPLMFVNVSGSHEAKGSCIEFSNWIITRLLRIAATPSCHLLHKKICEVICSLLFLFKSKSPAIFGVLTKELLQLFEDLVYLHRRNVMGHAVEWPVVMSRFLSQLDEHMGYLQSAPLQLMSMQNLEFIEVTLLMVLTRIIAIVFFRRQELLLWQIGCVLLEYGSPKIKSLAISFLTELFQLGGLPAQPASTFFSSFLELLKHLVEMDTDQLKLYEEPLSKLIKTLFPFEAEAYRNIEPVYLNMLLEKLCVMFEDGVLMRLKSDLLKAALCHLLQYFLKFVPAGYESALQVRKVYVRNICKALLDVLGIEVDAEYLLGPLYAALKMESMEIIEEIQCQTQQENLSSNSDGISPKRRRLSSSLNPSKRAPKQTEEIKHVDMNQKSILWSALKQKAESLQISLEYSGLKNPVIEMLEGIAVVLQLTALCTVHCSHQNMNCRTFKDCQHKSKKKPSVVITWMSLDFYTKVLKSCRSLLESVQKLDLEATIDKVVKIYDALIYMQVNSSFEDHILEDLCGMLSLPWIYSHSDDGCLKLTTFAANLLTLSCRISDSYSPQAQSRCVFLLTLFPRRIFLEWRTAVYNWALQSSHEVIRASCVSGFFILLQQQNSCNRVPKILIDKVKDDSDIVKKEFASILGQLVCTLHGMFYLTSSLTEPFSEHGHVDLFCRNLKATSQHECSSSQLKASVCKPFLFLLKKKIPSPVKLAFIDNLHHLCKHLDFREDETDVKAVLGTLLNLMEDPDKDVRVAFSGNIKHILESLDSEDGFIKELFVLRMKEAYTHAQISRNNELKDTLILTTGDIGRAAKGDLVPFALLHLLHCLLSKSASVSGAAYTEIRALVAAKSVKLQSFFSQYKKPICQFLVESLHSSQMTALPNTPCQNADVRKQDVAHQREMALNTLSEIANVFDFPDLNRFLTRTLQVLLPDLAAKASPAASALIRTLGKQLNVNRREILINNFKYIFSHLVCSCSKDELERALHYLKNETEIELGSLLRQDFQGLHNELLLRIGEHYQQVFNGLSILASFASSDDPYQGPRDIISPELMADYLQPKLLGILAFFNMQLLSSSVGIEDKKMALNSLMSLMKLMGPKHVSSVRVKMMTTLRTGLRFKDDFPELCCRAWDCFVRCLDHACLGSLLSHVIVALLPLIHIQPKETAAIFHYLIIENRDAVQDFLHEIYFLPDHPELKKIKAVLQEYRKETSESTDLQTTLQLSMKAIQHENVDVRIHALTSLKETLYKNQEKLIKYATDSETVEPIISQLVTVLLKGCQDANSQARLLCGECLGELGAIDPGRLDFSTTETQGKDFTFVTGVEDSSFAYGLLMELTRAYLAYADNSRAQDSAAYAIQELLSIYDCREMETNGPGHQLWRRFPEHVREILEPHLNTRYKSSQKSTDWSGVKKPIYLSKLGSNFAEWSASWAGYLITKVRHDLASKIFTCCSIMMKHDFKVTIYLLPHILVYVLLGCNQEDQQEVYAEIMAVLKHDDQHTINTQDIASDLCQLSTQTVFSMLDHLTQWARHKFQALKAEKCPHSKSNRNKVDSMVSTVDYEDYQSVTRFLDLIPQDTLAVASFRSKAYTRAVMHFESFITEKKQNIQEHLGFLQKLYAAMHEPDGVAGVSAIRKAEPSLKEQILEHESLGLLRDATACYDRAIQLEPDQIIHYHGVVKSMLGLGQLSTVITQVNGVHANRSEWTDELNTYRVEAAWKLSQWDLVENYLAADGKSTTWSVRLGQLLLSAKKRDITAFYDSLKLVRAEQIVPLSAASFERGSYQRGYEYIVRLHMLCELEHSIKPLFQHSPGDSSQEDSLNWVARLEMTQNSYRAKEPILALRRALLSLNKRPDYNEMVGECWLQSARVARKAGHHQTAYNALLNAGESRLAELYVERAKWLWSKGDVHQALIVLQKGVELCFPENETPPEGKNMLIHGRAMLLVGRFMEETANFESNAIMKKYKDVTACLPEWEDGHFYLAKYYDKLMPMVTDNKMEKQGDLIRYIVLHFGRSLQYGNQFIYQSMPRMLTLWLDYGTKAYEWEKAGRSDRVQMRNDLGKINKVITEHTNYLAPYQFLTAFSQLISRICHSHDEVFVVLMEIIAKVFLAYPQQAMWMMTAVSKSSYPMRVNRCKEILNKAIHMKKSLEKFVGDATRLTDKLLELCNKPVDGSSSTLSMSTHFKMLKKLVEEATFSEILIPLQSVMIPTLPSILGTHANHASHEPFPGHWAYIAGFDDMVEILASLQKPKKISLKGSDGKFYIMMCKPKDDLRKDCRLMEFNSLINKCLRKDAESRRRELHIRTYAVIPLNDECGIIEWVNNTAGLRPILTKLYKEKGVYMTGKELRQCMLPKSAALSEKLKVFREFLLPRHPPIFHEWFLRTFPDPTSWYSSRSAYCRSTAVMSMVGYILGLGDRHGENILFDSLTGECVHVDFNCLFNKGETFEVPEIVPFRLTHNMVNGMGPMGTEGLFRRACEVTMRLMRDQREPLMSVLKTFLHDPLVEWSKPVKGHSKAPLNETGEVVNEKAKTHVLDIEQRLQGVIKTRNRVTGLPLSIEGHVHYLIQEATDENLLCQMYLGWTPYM

| pKi | Compound |
| --- | --- |
| 7.00 to 8.00 | CN(C)C(=O)c1ccc(-c2cnc(N)c(-c3nnc(Nc4ccccc4Cl)o3)n2)cc1 [IA-151, 4-[5-amino-6-[5-(2-chloroanilino)-1,3,4-oxadiazol-2-yl]pyrazin-2-yl]-N,N-dimethyl-benzamide] |
| ≥ 8.00 | N#Cc1cc(C(=O)N2CCCNCC2)ccc1-c1cnc(N)c(-c2nnc(-c3cccs3)o2)n1 [IA-152, 2-(5-amino-6-(5-(thiophen-2-yl)-1,3,4-oxadiazol-2-yl)pyrazin-2-yl)-5-(1,4-diazepane-1-carbonyl)benzonitrile] |
| 7.00 to 8.00 | N#Cc1ccncc1-c1cnc(N)c(-c2nnc(-c3ccccc3)o2)n1 [IA-153, 3-(5-amino-6-(5-phenyl-1,3,4-oxadiazol-2-yl)pyrazin-2-yl)pyridine-4-carbonitrile] |
| 7.00 to 8.00 | CCc1ccccc1-c1nnc(-c2nc(-c3ccc(C(=O)N(C)C)cc3)cnc2N)o1 [IA-155, 4-(5-amino-6-(5-(2-ethylphenyl)-1,3,4-oxadiazol-2-yl)pyrazin-2-yl)-N,N-dimethylbenzamide] |
| 5.30 to 7.00 | CN(C)C(=O)c1ccc(-c2cnc(N)c(-c3nnc(NCCc4ccccc4)o3)n2)cc1 [IA-156, 4-[5-amino-6-[5-(phenethylamino)-1,3,4-oxadiazol-2-yl]pyrazin-2-yl]-N,N-dimethyl-benzamide] |
| 7.00 to 8.00 | COc1ccc(-c2nnc(-c3nc(-c4ccc(C(=O)N(C)C)cc4)cnc3N)o2)cc1 [IA-157, 4-[5-amino-6-[5-(4-methoxyphenyl)-1,3,4-oxadiazol-2-yl]pyrazin-2-yl]-N,N-dimethyl-benzamide] |
| ≥ 8.00 | CC(C)S(=O)(=O)c1ccc(-c2cnc(N)c(-c3nnc(-c4ccc(CNC5CC5)cc4)o3)n2)cc1 [IA-158, 3-[5-[4-[(cyclopropylamino)methyl]phenyl]-1,3,4-oxadiazol-2-yl]-5-(4-isopropylsulfonylphenyl)pyrazin-2-amine] |
| 5.30 to 7.00 | CC(C)S(=O)(=O)c1ccc(-c2cnc(N)c(-c3nnc(NC(=O)[C@H]4N[C@H]5CC[C@@H]4C5)o3)n2)cc1 [IA-160, (1R,4S,6S)—N-[5-[3-amino-6-(4-isopropylsulfonylphenyl)pyrazin-2-yl]-1,3,4-oxadiazol-2-yl]-5-azabicyclo[2.2.1]heptane-6-carboxamide] |
| 7.00 to 8.00 | CN(C)C(=O)c1ccc(-c2cnc(N)c(-c3nnc(-c4ccccc4)o3)n2)c(-c2cnco2)c1 [IA-161, 4-[5-amino-6-(5-phenyl-1,3,4-oxadiazol-2-yl)pyrazin-2-yl]-N,N-dimethyl-3-oxazol-5-yl-benzamide] |
| 7.00 to 8.00 | CN(C)C(=O)c1ccc(-c2cnc(N)c(-c3nnc(-c4ccc(CNC(=O)OC(C)(C)C)cc4)o3)n2)cc1 [IA-162, tert-butyl N-[[4-[5-[3-amino-6-[4-(dimethylcarbamoyl)phenyl]pyrazin-2-yl]-1,3,4-oxadiazol-2-yl]phenyl]methyl]carbamate] |
| 5.30 to 7.00 | CN(C)C(=O)c1ccc(-c2cnc(N)c(-c3nnc(NC4CCCCC4)o3)n2)cc1 [IA-163, 4-[5-amino-6-[5-(cyclohexylamino)-1,3,4-oxadiazol-2-yl]pyrazin-2-yl]-N,N-dimethyl-benzamide] |
| 5.30 to 7.00 | CC(C)(C)OC(=O)NCC[S+]([O-])c1ccccc1-c1cnc(N)c(-c2nnc(-c3ccccc3)o2)n1 (centres unmarked) [IA-164, tert-butyl N-[2-[2-[5-amino-6-(5-phenyl-1,3,4-oxadiazol-2-yl)pyrazin-2-yl]phenyl]sulfinylethyl]carbamate] |
| 7.00 to 8.00 | CN(C)CCOc1cc(-c2cnc(N)c(-c3nnc(-c4ccccc4)o3)n2)ccn1 [IA-165, 5-[2-(2-dimethylaminoethyloxy)-4-pyridyl]-3-(5-phenyl-1,3,4-oxadiazol-2-yl)pyrazin-2-amine] |
| ≥ 8.00 | CNCc1ccc(-c2nnc(-c3nc(-c4ccc(S(=O)(=O)C(C)C)cc4)cnc3N)o2)c(C)c1 [IA-166, 5-(4-isopropylsulfonylphenyl)-3-[5-[2-methyl-4-(methylaminomethyl)phenyl]-1,3,4-oxadiazol-2-yl]pyrazin-2-amine] |
| ≥ 8.00 | Cc1ccsc1-c1nnc(-c2nc(-c3ccc(C(=O)N(C)C)cc3)cnc2N)o1 [IA-167, 4-[5-amino-6-[5-(3-methyl-2-thienyl)-1,3,4-oxadiazol-2-yl]pyrazin-2-yl]-N,N-dimethyl-benzamide] |
| 5.30 to 7.00 | CC(C)S(=O)(=O)c1ccc(-c2cnc(N)c(-c3nnc(CN)o3)n2)cc1 [IA-168, 3-[5-(aminomethyl)-1,3,4-oxadiazol-2-yl]-5-(4-isopropylsulfonylphenyl)pyrazin-2-amine] |
| ≥ 8.00 | CN(C)CCS(=O)(=O)c1ccc(-c2cnc(N)c(-c3nnc(-c4ccccc4)o3)n2)cc1 [IA-169, 5-[4-(2-dimethylaminoethylsulfonyl)phenyl]-3-(5-phenyl-1,3,4-oxadiazol-2-yl)pyrazin-2-amine] |
| 7.00 to 8.00 | Nc1ncc(-c2ccoc2)nc1-c1nnc(-c2ccccc2)o1 [IA-170, 5-(3-furyl)-3-(5-phenyl-1,3,4-oxadiazol-2-yl)pyrazin-2-amine] |
| ≥ 8.00 | CNCc1ccc(-c2nnc(-c3nc(-c4ccc(S(=O)(=O)C(C)C)cc4)cnc3N)o2)c(OC)c1 [IA-171, 5-(4-isopropylsulfonylphenyl)-3-[5-[2-methoxy-4-(methylaminomethyl)phenyl]-1,3,4-oxadiazol-2-yl]pyrazin-2-amine] |

| pKi | Compound |
| --- | --- |
| ≥ 8.00 | CC(C)S(=O)(=O)c1ccc(-c2cnc(N)c(-c3nnc(-c4ccc(CN)s4)o3)n2)cc1 [IA-173, 3-[5-[5-(aminomethyl)-2-thienyl]-1,3,4-oxadiazol-2-yl]-5-(4-isopropylsulfonylphenyl)pyrazin-2-amine] |
| 5.30 to 7.00 | Nc1ncc(-c2ccccc2C(F)(F)F)nc1-c1nnc(-c2ccccc2)o1 [IA-174, 3-(5-phenyl-1,3,4-oxadiazol-2-yl)-5-[2(-trifluoromethyl)phenyl]pyrazin-2-amine] |
| ≥ 8.00 | CN(C)C(=O)c1ccc(-c2cnc(N)c(-c3nnc(-c4ccccc4OCCNC(=O)OC(C)(C)C)o3)n2)cc1 [IA-175, tert-butyl N-[2-[2-[5-[3-amino-6-[4-(dimethylcarbamoyl)phenyl]pyrazin-2-yl]-1,3,4-oxadiazol-2-yl]phenoxy]ethyl]carbamate] |
| 5.30 to 7.00 | Nc1ncc(-c2ccccc2Br)nc1-c1nnc(-c2ccccc2)o1 [IA-176, 5-(2-bromophenyl)-3-(5-phenyl-1,3,4-oxadiazol-2-yl)pyrazin-2-amine] |
| 7.00 to 8.00 | CC(=O)Nc1nnc(-c2nc(-c3ccc(S(=O)(=O)C(C)C)cc3)cnc2N)o1 [IA-177, N-[5-[3-amino-6-(4-isopropylsulfonylphenyl)pyrazin-2-yl]-1,3,4-oxadiazol-2-yl]acetamide] |
| ≥ 8.00 | CC(C)S(=O)(=O)c1ccc(-c2cnc(N)c(-c3nnc(-c4ccc(CNCCO)cc4)o3)n2)cc1 [IA-178, 2-(4-(5-(3-amino-6-(4-(isopropylsulfonyl)phenyl)pyrazin-2-yl)-1,3,4-oxadiazol-2-yl)benzylamino)ethanol] |
| ≥ 8.00 | Cc1ccsc1-c1nnc(-c2nc(-c3ccccc3[S+](C)[O-])cnc2N)o1 (centres unmarked) [IA-179, 5-(2-methylsulfinylphenyl)-3-[5-(3-methyl-2-thienyl)-1,3,4-oxadiazol-2-yl]pyrazin-2-amine] |
| 7.00 to 8.00 | CN(C)C(=O)c1ccc(-c2cnc(N)c(-c3nnc(-c4cscn4)o3)n2)cc1 [IA-180, 4-[5-amino-6-(5-thiazol-4-yl-1,3,4-oxadiazol-2-yl)pyrazin-2-yl]-N,N-dimethyl-benzamide] |
| ≥ 8.00 | Cc1ccsc1-c1nnc(-c2nc(-c3ccc(C(=O)N4CCCNCC4)cc3C#N)cnc2N)o1 [IA-181, 2-(5-amino-6-(5-(3-methylthiophen-2-yl)-1,3,4-oxadiazol-2-yl)pyrazin-2-yl)-5-(1,4-diazepane-1-carbonyl)benzonitrile] |
| 5.30 to 7.00 | Cc1cccc(-c2cnc(N)c(-c3nnc(-c4ccccc4)o3)n2)c1 [IA-182, 5-(m-tolyl)-3-(5-phenyl-1,3,4-oxadiazol-2-yl)pyrazin-2-amine] |
| 7.00 to 8.00 | CCSc1ccccc1-c1cnc(N)c(-c2nnc(-c3ccccc3)o2)n1 [IA-184, 5-(2-ethylsulfanylphenyl)-3-(5-phenyl-1,3,4-oxadiazol-2-yl)pyrazin-2-amine] |
| 7.00 to 8.00 | CC(C)S(=O)(=O)c1ccc(-c2cnc(N)c(-c3nnc(-c4cccc(C5CNC5)c4)o3)n2)cc1 [IA-185, 3-[5-[3-(azetidin-3-yl)phenyl]-1,3,4-oxadiazol-2-yl]-5-(4-isopropylsulfonylphenyl)pyrazin-2-amine] |
| 5.30 to 7.00 | Nc1ncc(-c2ccc(N3CCNCC3)nc2)nc1-c1nnc(-c2ccccc2)o1 [IA-186, 3-(5-phenyl-1,3,4-oxadiazol-2-yl)-5-(6-piperazin-1-yl-3-pyridyl)pyrazin-2-amine] |
| 7.00 to 8.00 | CC(C)S(=O)(=O)c1ccc(-c2cnc(N)c(-c3nnc(-c4cccc(C#N)c4)o3)n2)cc1 [IA-187, 3-[5-[3-amino-6-(4-isopropylsulfonylphenyl)pyrazin-2-yl]-1,3,4-oxadiazol-2-yl]benzonitrile] |
| 5.30 to 7.00 | CC(C)S(=O)(=O)c1ccc(-c2cnc(N)c(-c3nnc(N4CCC(N)C4)o3)n2)cc1 (centres unmarked) [IA-188, 3-[5-(3-aminopyrrolidin-1-yl)-1,3,4-oxadiazol-2-yl]-5-(4-isopropylsulfonylphenyl)pyrazin-2-amine] |
| 7.00 to 8.00 | CN(C)C(=O)c1ccc(-c2cnc(N)c(-c3nnc(-c4sccc4C#N)o3)n2)cc1 [IA-189, 4-[5-amino-6-[5-(3-cyano-2-thienyl)-1,3,4-oxadiazol-2-yl]pyrazin-2-yl]-N,N-dimethyl-benzamide] |
| 5.30 to 7.00 | CS(=O)(=O)c1ccccc1-c1cnc(N)c(-c2nnc(-c3ccccc3)o2)n1 [IA-190, 5-(2-methylsulfonylphenyl)-3-(5-phenyl-1,3,4-oxadiazol-2-yl)pyrazin-2-amine] |
| ≥ 8.00 | CN(C)CCS(=O)(=O)c1ccc(-c2cnc(N)c(-c3nnc(-c4ccc(O)cc4)o3)n2)cc1 [IA-191, 4-[5-[3-amino-6-[4-(2-dimethylaminoethylsulfonyl)phenyl]pyrazin-2-yl]-1,3,4-oxadiazol-2-yl]phenol] |
| 5.30 to 7.00 | CN(C)C(=O)c1ccc(-c2cnc(N)c(-c3nnc(N4CCC4)o3)n2)cc1 [IA-192, 4-[5-amino-6-[5-(azetidin-1-yl)-1,3,4-oxadiazol-2-yl]pyrazin-2-yl]-N,N-dimethyl-benzamide] |
